MIC data for 16 molecules are collected here from US7223776B2, “Compounds with anti-bacterial activity” (priority 2002, dated 2007).

SMILES strings stand for the structures. Where two headings read alike, the source gives them in different places. Bounds are passed on as bounds.

This test can be described thus: Anti-bacterial activity: MHK measured against a panel of bacterial strains. The format is cell-based. The settings on record: read-out: MHK. The method, then:
The MHK (μg/ml) of those compounds was measured in relation to the following bacterial strains: S. aureus ATCC 29213, S. aureus 16, E. faecalis ATCC 29212, E. faecium vanA E25-1, H. influenzae 11, E. coli ATCC 25922, M. catarrhalis 117, S. pneumoniae ATCC 49619. Examples 5–6, 8, 11–16, 18–26, 30, 44–45, 47–58 have an MHK<=0.125 in relation to at least one of the listed strains.

[1] abbreviates: in relation to at least one of the listed strains (strain not specified).

With `COc1ccc2nccc(C(O)CN3CCC=C(CNCc4ccc5c(c4)OCCO5)C3)c2c1` (stereo not shown) [Example 59, 2-(5-{[(2,3-Dihydro-benzo[1,4]dioxin-6-ylmethyl)-amino]-methyl}-3,6-dihydro-2H-pyridin-1-yl)-1-(6-methoxy-quinolin-4-yl)-ethanol], the MIC under setting [1] is not above 0.5 µg/mL.
The same measure, in the same setting: the result for `COc1ccc2nccc(C(O)CN3CCC[C@@H](CNCc4ccc5c(c4)OCO5)C3)c2c1` (mixture of isomers) [Example 9, 2-((3S)-{[(2,3-Dihydro-benzo[1,3]dioxo-6-ylmethyl)-amino]-methyl}-piperidin-1-yl)-(1RS)-(6-methoxy-quinolin-4-yl)-ethanol] reads not above 0.5 µg/mL.
Take `COc1ccc2ncnc(CCC3(O)CCC(NCc4ccc5c(c4)OCO5)CC3)c2c1` (stereo not shown) [Example 10, 4-[(Benzo[1.3]dioxol-5-ylmethyl)-amino]-1-[2-(6-methoxy-quinazolin-4-yl)-ethyl]-cyclohexanol]: the MIC is not above 0.5 µg/mL.
`COc1ccc2nccc(C(O)CN3CCOC(CNCc4ccc5c(c4)OCCO5)C3)c2c1` (racemic) [Example 61, 2-((2RS)-{[(2,3-Dihydro-benzo[1,4]dioxin-6-ylmethyl)-amino]-methyl}-morpholin-4-yl)-(1RS)-(6-methoxy-quinolin-4-yl)-ethanol]: the MIC under setting [1] is not above 0.5 µg/mL.
Same read-out and setting: in the case of `COc1ccc2ncnc(OCC3CCC(NCc4cnc5ccccc5n4)CC3)c2c1` (stereo not shown) [Example 43, [4-(6-Methoxy-quinazolin-4-yloxymethyl)-cyclohexyl]-quinoxalin-2-ylmethyl-amine] it was not above 0.5 µg/mL.
For the molecule `CCOc1ccc2nccc(CCC3(O)CCC(NCc4ccc5c(c4)OCO5)CC3)c2c1` (stereo not shown) [Example 17], the MIC is not above 0.5 µg/mL.
Turning to `COc1ccc2nccc(C(O)CN3CCCC(NCc4ccc5c(c4)OCCO5)CC3)c2c1` (racemic) [Example 34], under setting [1], the MIC is not above 0.5 µg/mL.
On to `COc1ccc2nccc(C(O)CN3CCC[C@@H](CNCc4ccc5nsnc5c4)C3)c2c1` (mixture of isomers) [Example 6, (3S)-2-(3-{[(Benzo[1,2,5]thiadiazol-5-ylmethyl)-amino]-methyl}-piperidin-1-yl)-(1RS)-(6-methoxy-quinolin-4-yl)-ethanol], for which, under setting [1], the MIC was not above 0.125 µg/mL.
On to `COc1ccc2nccc([C@@H](O)CN3CCC[C@@H](CNCc4ccc5c(c4)OCCO5)C3)c2c1` [Example 8, 2-((3S)-{[(2,3-Dihydro-benzo[1,4]dioxin-6-ylmethyl)-amino]-methyl}-piperidin-1-yl)-(1S)-(6-methoxy-quinolin-4-yl)-ethanol], for which the MIC is not above 0.125 µg/mL.
Turning to `COc1ccc2nccc(C(O)CN3CCC[C@@H](CNCc4ccc5c(c4)OCCCO5)C3)c2c1` (mixture of isomers) [Example 7], under setting [1], the MIC was not above 0.5 µg/mL.
Consider `COc1ccc2ncnc(OCC3CCC(NCc4ccc5c(c4)NC(=O)CO5)CC3)c2c1` (stereo not shown) [Example 44, 6-{[4-(6-Methoxy-quinazolin-4-yloxymethyl)-cyclohexylamino]-methyl}-4H-benzo[1,4]oxazin-3-one], for which the MIC under setting [1] is not above 0.125 µg/mL.
`COc1ccc2nccc(C(O)CN3CCC[C@@H](CNCc4ccc5c(c4)NC(=O)CO5)C3)c2c1` (mixture of isomers) [Example 5, (3S)-6-[({1-[2-Hydroxy-2-(6-methoxy-quinolin-4-yl)-ethyl]-piperidin-(3RS)-ylmethyl}-amino)-methyl]-4H-benzo[1,4]oxazin-3-one]: the MIC under setting [1] is not above 0.125 µg/mL.
On the same count and under the same terms, in the case of `COc1ccc2ncnc(OCC3CCC(NC/C=C/c4ccccc4)CC3)c2c1` (stereo not shown) [Example 45, [4-(6-Methoxy-quinazolin-4-yloxymethyl)-cyclohexyl]-(3-phenyl-allyl)-amine] it was not above 0.125 µg/mL; in that of `COc1ccc2ncnc(OCC3CCC(NCC(=O)Nc4ccccn4)CC3)c2c1` (stereo not shown) [Example 46, 2-[4-(6-Methoxy-quinazolin-4-yloxymethyl)-cyclohexylamino]-N-pyridin-2-yl-acetamide], not above 0.5 µg/mL.
Turning to `COc1ccc2ncnc(OCC3CCC(NCc4ccc5c(c4)OCCO5)CC3)c2c1` (stereo not shown) [Example 42, (2,3-Dihydro-benzo[1,4]dioxin-6-ylmethyl)-[4-(6-methoxy-quinazolin-4-yloxymethyl)-cyclohexyl]-amine], the MIC under setting [1] is not above 0.5 µg/mL.
In the case of `COc1ccc2nccc(CCC3CCC(NCc4ccc5c(c4)NC(=O)CO5)CC3)c2c1` (stereo not shown) [Example 30, 6-({4-[2-(6-Methoxy-quinolin-4-yl)-ethyl]-cyclohexylamino}-methyl)-4H-benzo[1,4]oxazin-3-one], the MIC under setting [1] is not above 0.125 µg/mL.
